Numbers after ± are expanded uncertainties.
Experiments:
[1] = DTA
[2] = Molar enthalpy of transition or fusion; conditions: DSC

SMILES | Normal melting temperature ([1]; Crystal 1) [°C] | Triple point temperature ([1]; Crystal 2) [K] | Glass transition temperature [1] [°C] | Molar enthalpy of transition or fusion ([2]; Crystal 1) [kcal/mol] | Molar enthalpy of transition or fusion ([2]; Crystal 2) [kcal/mol] | Normal melting temperature ([1]; Crystal) [°C] | Molar enthalpy of transition or fusion ([2]; Crystal) [kcal/mol]
CC[S+](CC)CC.O=S(=O)([N-]S(=O)(=O)C(F)(F)F)C(F)(F)F [triethylsulfonium bis((trifluoromethyl)sulfonyl)imide] | -10.3 ± 0.5 | 241.1 ± 2 | -73.8 ± 2 | 1.67 ± 0.0669 | 2.25 ± 0.0813 | – | –
Cc1cc[n+](C)cc1.Cc1ccc(S(=O)(=O)[O-])cc1 [1,4-dimethylpyridinium 4-methylbenzenesulfonate] | – | – | – | – | – | 151.7 ± 0.5 | 7.38 ± 0.21
CCCCCCn1cc[n+](C)c1.N#C[S-] [1-hexyl-3-methylimidazolium thiocyanate] | – | – | -83.2 ± 2 | – | – | – | –
CCn1cc[n+](C)c1.N#C[S-] [1-ethyl-3-methylimidazolium thiocyanate] | – | – | -97.5 ± 2 | – | – | – | –
Cc1cc(C)[nH+]c(C)c1.Cc1ccc(S(=O)(=O)[O-])cc1 [2,4,6-trimethylpyridinium 4-methylbenzenesulfonate] | – | – | -7.8 ± 2 | – | – | 130.6 ± 0.5 | 5.47 ± 0.163
CCCC[n+]1ccc(C)cc1.O=S(=O)([N-]S(=O)(=O)C(F)(F)F)C(F)(F)F | – | – | -77.2 ± 2 | – | – | 18.2 ± 0.5 | 5.24 ± 0.158
CCCCCC[n+]1cccc(C)c1.Cc1ccc(S(=O)(=O)[O-])cc1 [1-hexyl-3-methylpyridinium 4-methylbenzenesulfonate] | – | – | -39 ± 2 | – | – | 56.2 ± 0.5 | 2.41 ± 0.0884
CCCC[n+]1cccc(C)c1.Cc1ccc(S(=O)(=O)[O-])cc1 [1-butyl-3-methylpyridinium 4-methylbenzenesulfonate] | – | – | -53.0 ± 2 | – | – | 50.6 ± 0.5 | 0.366 ± 0.0406

— the NIST ThermoML archive (doi:10.1016/j.jct.2009.06.003)
